Assay results taken from ChEMBL document CHEMBL1201862, “PubChem BioAssay data set” (2004).
“And” between values parts separate entries of the source, which are not always exact repeats. Equal values may be shown once.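 Protocol summary: plate cells (96-well), add compound at 5 concentrations, incubate 48 h, interpolate endpoints linearly. GI50: concentration for 50% inhibition of growth.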 The source made the active and inactive calls. Cut-off read from the data, not from the text of the source: active = GI50 up to about 1.1 µM and inactive = higher.

Legend:
Experiment in all cases: inhibition of tumour cell growth, NCI panel, 48 h
[1] = system: HCC 2998
[2] = system: Hs-578T
[3] = system: EKVX
[4] = system: ACHN
[5] = system: SF-268
[6] = system: NCI-H23
[7] = system: UO-31
[8] = system: TK-10
[9] = system: HT-29
[10] = system: LOX IMVI
[11] = system: OVCAR-5
[12] = system: NCI/ADR-RES
[13] = system: DU-145
[14] = system: OVCAR-8
[15] = system: COLO 205
[16] = system: RXF 393
[17] = system: CAKI-1
[18] = system: UACC-257
[19] = system: U-251
[20] = system: MCF7
[21] = system: 786-0
[22] = system: SK-OV-3
[23] = system: SNB-19
[24] = system: SNB-75
[25] = system: Malme-3M
[26] = system: NCI-H226
[27] = system: HOP-62
[28] = system: MOLT-4
[29] = system: A549
[30] = system: MDA-MB-231
[31] = system: MDA-N
[32] = system: SK-MEL-2
[33] = system: HCT-15
[34] = system: PC-3
[35] = system: SF-295
[36] = system: SW-620
[37] = system: CCRF-CEM
[38] = system: OVCAR-4
[39] = system: KM12
[40] = system: SF-539
[41] = system: IGROV-1
[42] = system: HOP-92
[43] = system: NCI-H522
[44] = system: HL-60
[45] = system: T47D
[46] = system: SN12C
[47] = system: SK-MEL-5
[48] = system: UACC-62
[49] = system: NCI-H460
[50] = system: A498
[51] = system: SK-MEL-28
[52] = system: K562
[53] = system: HCT-116
[54] = system: OVCAR-3
[55] = system: M14
[56] = system: MDA-MB-435

For `O=C1N/C(=N/N=C\C(O)C(O)C(O)CO)N/C1=C/c1ccccc1` (stereo unspecified), the GI50 [1] was 51.6 µM (inactive), the GI50 [2] was > 100 µM (inactive) and the GI50 [3] was > 100 µM (inactive) and 85.7 µM (inactive). The GI50 [4] was > 100 µM (inactive), the GI50 [5] was > 100 µM (inactive) and 62.7 µM (inactive) and the GI50 [6] was > 100 µM (inactive). For the same molecule, the GI50 [7] was > 100 µM (inactive), the GI50 [8] was > 100 µM (inactive) and the GI50 [9] was 50.1 µM (inactive). The GI50 [10] was > 100 µM (inactive), the GI50 [11] was > 100 µM (inactive) and the GI50 [12] was > 100 µM (inactive). For the same molecule, the GI50 [13] was > 100 µM (inactive), the GI50 [14] was 65 µM (inactive) and the GI50 [15] was > 100 µM (inactive). For the same molecule, the GI50 [16] was > 100 µM (inactive), the GI50 [17] was > 100 µM (inactive) and the GI50 [18] was > 100 µM (inactive). For the same molecule, the GI50 [19] was > 100 µM (inactive) and 52.5 µM (inactive), the GI50 [20] was 34.4 µM (inactive) and 32.6 µM (inactive) and the GI50 [21] was 64 µM (inactive). The GI50 [22] was > 100 µM (inactive), the GI50 [23] was > 100 µM (inactive) and the GI50 [24] was > 100 µM (inactive). The GI50 [25] was 82 µM (inactive), the GI50 [26] was > 100 µM (inactive) and the GI50 [27] was > 100 µM (inactive). For the same molecule, the GI50 [28] was 24 µM (inactive) and 39.6 µM (inactive), the GI50 [29] was > 100 µM (inactive) and the GI50 [30] was 60 µM (inactive). For the same molecule, the GI50 [31] was 53 µM (inactive) and the GI50 [32] was > 100 µM (inactive).
In the case of `CC(=O)CC(O)(C(F)(F)Cl)C(F)(Cl)Cl` (stereo unspecified), the GI50 [1] is reported as > 10 µM (inactive), the GI50 [33] is reported as over 10 µM and the GI50 [34] is reported as > 10 µM (inactive). For the same molecule, the GI50 [2] was > 10 µM (inactive), the GI50 [3] was > 10 µM (inactive) and the GI50 [35] was > 10 µM (inactive). The GI50 [36] was > 10 µM (inactive), the GI50 [37] was > 10 µM (inactive) and the GI50 [4] was > 10 µM (inactive). For the same molecule, the GI50 [5] was > 10 µM (inactive), the GI50 [6] was > 10 µM (inactive) and the GI50 [38] was > 10 µM (inactive). The GI50 [7] was > 10 µM (inactive), the GI50 [8] was > 10 µM (inactive) and the GI50 [9] was > 10 µM (inactive). The GI50 [39] was > 10 µM (inactive), the GI50 [40] was > 10 µM (inactive) and the GI50 [41] was > 10 µM (inactive). For the same molecule, the GI50 [10] was > 10 µM (inactive), the GI50 [42] was > 10 µM (inactive) and the GI50 [12] was > 10 µM (inactive). The GI50 [43] was > 10 µM (inactive), the GI50 [44] was > 10 µM (inactive) and the GI50 [45] was > 10 µM (inactive). For the same molecule, the GI50 [13] was > 10 µM (inactive), the GI50 [46] was > 10 µM (inactive) and the GI50 [47] was > 10 µM (inactive). The GI50 [14] was > 10 µM (inactive), the GI50 [15] was > 10 µM (inactive) and the GI50 [16] was > 10 µM (inactive). For the same molecule, the GI50 [48] was > 10 µM (inactive), the GI50 [49] was > 10 µM (inactive) and the GI50 [17] was > 10 µM (inactive). For the same molecule, the GI50 [18] was > 10 µM (inactive), the GI50 [19] was > 10 µM (inactive) and the GI50 [50] was > 10 µM (inactive). For the same molecule, the GI50 [51] was > 10 µM (inactive), the GI50 [20] was > 10 µM (inactive) and the GI50 [52] was > 10 µM (inactive). For the same molecule, the GI50 [53] was > 10 µM (inactive), the GI50 [54] was > 10 µM (inactive) and the GI50 [55] was > 10 µM (inactive). The GI50 [56] was > 10 µM (inactive), the GI50 [21] was > 10 µM (inactive) and the GI50 [22] was > 10 µM (inactive). The GI50 [23] was > 10 µM (inactive), the GI50 [24] was > 10 µM (inactive) and the GI50 [25] was > 10 µM (inactive). For the same molecule, the GI50 [26] was > 10 µM (inactive), the GI50 [27] was > 10 µM (inactive) and the GI50 [29] was > 10 µM (inactive). The GI50 [30] was > 10 µM (inactive), the GI50 [31] was > 10 µM (inactive) and the GI50 [32] was > 10 µM (inactive).
